Source: US11819533B2, “Compositions and methods for the treatment of fungal infections” (Cidara Therapeutics, Inc., priority 2017, dated 2023)
Like-named read-outs stand apart in the source and are kept apart here. Starred links: 1 amine or outer side, 2 acyl side, 3 side chain; linkers in the order of their positions; H or OH if unused. Positions of bridges follow the written chain, without caps; N, C: chain ends. Non-standard residues stand in square brackets, D forms with d. Residues, ends and D or L forms follow the SMILES beside them. *: point of attachment. Orn(4R-OH,5R-OCH2CH2NMe3+) = C[N+](C)(C)CCO[C@@H](N[*:3])[C@H](O)C[C@H](N[*:1])C(=O)[*:2]; pTerphenylCO(4''-OnC5H11) = CCCCCOc1ccc(-c2ccc(-c3ccc(C(=O)*)cc3)cc2)cc1; hTyr(3S-OH,4S-OH) = N[C@H](C(=O)O)[C@H](O)[C@@H](O)c1ccc(O)cc1; Pro(3S-OH,4S-Me) = C[C@H]1CN[C@H](C(=O)O)[C@H]1O; Hyp = O=C(O)[C@@H]1C[C@@H](O)CN1

Experiments:
[1] = Solubility of CD101 acetate in various media; assay type: physicochemical
Description: Table 1 below provides the solubility of CD101 acetate in different solutions.

[2] = Dropwise addition of CD101 acetate 4 mg/mL solutions to 0.9% saline solution or PBS buffer, observed for drug insolubility; assay type: physicochemical
Description: CD101 acetate 20 mg/kg dose was prepared in w/w in 5% dextrose solution (CD101 acetate at 4 mg/mL solution) for the following solutions using the salt to free base correction factor of 0.8784 for CD101 acetate: […]
0.5% w/w Tween 80 used. The pH of the solution is 5.21 (22.8 mg CD101 acetate into 5 mL 5% Dextrose with 0.5% w/w Tween 80 (0.1 g Tween 80+19.9 g 5% Dextrose))
1.0% w/w Tween 80 used. The pH of the solutions is 5.27 (22.9 mg CD101 acetate into 5 mL 5% Dextrose with 1.0% w/w Tween 80 (0.2 g Tween 80+19.8 g 5% Dextrose))
2.5% w/w Tween 80 used. The pH of the solutions is 5.29 (22.7 mg CD101 acetate into 5 mL 5% Dextrose with 2.5% w/w Tween 80 (0.5 g Tween 80+[…] 5% Dextrose))
1.0% w/w Tween 80 used. The pH of the solution was adjusted to 6.64 using 0.1 N NaOH. (22.9 mg CD101 acetate into 5 mL 5% Dextrose with 1.0% w/w Tween 80 (0.2 g Tween 80+19.8 g 5% Dextrose))

[3] = PBS drop test of CD101 IV formulations (Example 4); assay type: physicochemical; conditions: 2 mg/mL in 0.50% Tween 80, 0.76% mannitol, 0.125% sodium lactate in 3.5% dextrose solution, pH ~5.5; 0.25 mL into 1 mL PBS
Description: Solubility of CD101-containing formulations with different percentages of Tween 80 (also referred to as polysorbate 80) was evaluated in a “PBS drop test.” This involved preparing a known concentration of CD101 in a formulation and injecting the formulation into PBS to visually examine for precipitation. This test was used to assess if a CD101-containing formulation would remain soluble in blood during IV infusions.
(1) 1.25% Tween 80, 5% mannitol, 0.3% glacial acetic acid, pH ˜4.5
(2) 0.50% Tween 80, 0.76% mannitol, 0.125% sodium lactate in 3.5% dextrose solution, pH ˜5.5
Different concentrations of CD101 acetate were prepared in vehicles (1) and (2) and tested for solubility in the PBS drop test.
Add dropwise the formulated solution into PBS solution (1:4 dilution). Visually observe the resulting solution upon addition for any precipitation.

Sprague Dawley rats = assay: 14-day repeat-dose intravenous infusion toxicity study; assay type: in vivo; conditions: for Animals that did not receive ten consecutive days of treatment (Days 5-14): females
Description: The primary purpose of this study was to evaluate the toxicity of CD101 when administered intravenously as a 20-minute infusion into the lateral tail vein of Sprague Dawley rats for fourteen consecutive days. A positive control group (Eraxis®) with a similar structure and pharmacodynamic activity was included in the study design.
The test article, CD101 acetate, was a white to off-white powder. The test article was prepared into dosing formulations for intravenous dose administration. One hundred experimentally naïve Sprague Dawley rats (50 males and 50 females), a minimum of 8 weeks old and weighing 255-318 grams (males) and 192-215 (females) at the outset of the study were assigned to treatment groups as shown in Table 7 below:
All animals were dosed on Days 1 through 3 inclusive. As a result of tail vein irritation observed among all study groups, dose administration was suspended on Day 4 to allow the tails to recover. Dosing resumed on Day 5 and continued for a maximum of ten additional days (Days 5 through 14 inclusive). Animals that could no longer be dosed during this time remained on study.
Male and female Sprague Dawley rats were to receive CD101 acetate at doses of 0, 2, 6 and 20 mg/kg/day (Groups 1, 3, 4 and 5, respectively) or Eraxis® (the positive control article, Group 2) at a dose of 40 mg/kg/day, intravenously as a 20 minute infusion into the left or right lateral tail vein for fourteen consecutive days. During the first three treatment days, all animals were dosed with the first vehicle used on this study (1.75% Tween 80/5% Dextrose: Groups 1 and 3-5; 5% Dextrose: Group 2). As a result of the localized tail swelling observed during the first three days of treatment, study Day 4 served as a drug-free day to alleviate tail vein irritation. Dose administration resumed on Day 5 using a new vehicle (5% Mannitol/2.5% Tween 80/0.3% acetic acid: Groups 1 and 3-5; 5% Mannitol/0.3% acetic acid: Group 2) for the remainder of the treatment period (Days 5-14). Those animals that could no longer be dosed because of severe vein irritation were retained on study, untreated, until the end of the study (Day 15).

[4] = Dropwise addition of CD101 acetate 4 mg/mL solutions to 0.9% saline solution or PBS buffer, observed for drug insolubility; assay type: physicochemical; conditions: 4 mg/mL in 5% dextrose and 0.5% Tween 80, pH 5.4
[5] = 4 mg/mL in 5% dextrose and 1.0% Tween 80, adjusted to 6.64 pH using 0.1N NaOH
[6] = 4 mg/mL in 5% dextrose and 1.0% Tween 80, pH 5.3
[7] = 4 mg/mL in 5% dextrose and 2.5% Tween 80, pH 5.3

## CCCCCOc1ccc(-c2ccc(-c3ccc(C(=O)N[C@H]4C[C@@H](O)[C@@H](OCC[N+](C)(C)C)NC(=O)[C@@H]5[C@@H](O)[C@@H](C)CN5C(=O)[C@H]([C@@H](C)O)NC(=O)[C@H]([C@H](O)[C@@H](O)c5ccc(O)cc5)NC(=O)[C@@H]5C[C@@H](O)CN5C(=O)[C@H]([C@@H](C)O)NC4=O)cc3)cc2)cc1 [CD101 acetate] ({pTerphenylCO(4''-OnC5H11)}-[Orn(4R-OH,5R-OCH2CH2NMe3+)]T[Hyp][hTyr(3S-OH,4S-OH)]T[Pro(3S-OH,4S-Me)]; lactam 1-C)
[1]; 15 mM potassium chloride, saline or isotonic, Potassium chloride (15 mM), read-out: Solubility
  solubility: > 1.7 mg/mL
[1]; 50 mM acetate buffer with 0.4% Tween 20, aqueous with cosolvent or surfactant or cyclodextrin, 50 mM Acetate buffer pH 4.5 with 0.4% Tween 20, maximum solubility not reached, read-out: Solubility
  solubility: > 31.3 mg/mL
[1]; 100 mM lactate buffer, aqueous buffer, Lactate buffer (100 mM), pH 6.5, maximum solubility not reached, read-out: Solubility
  solubility: > 48 mg/mL
[1]; 100 mM lactate buffer, aqueous buffer, Lactate buffer (100 mM), pH 7.4, maximum solubility not reached, read-out: Solubility
  solubility: > 51 mg/mL
[1]; 100 mM phosphate buffer, pH 7.4, aqueous buffer, read-out: Solubility
  solubility: 0.007 to 0.01 mg/mL
[1]; 150 mM KCl, saline or isotonic, KCl (150 mM), read-out: Solubility
  solubility: < 0.2 mg/mL
[1]; 150 mM potassium chloride, saline or isotonic, Potassium chloride (150 mM), read-out: Solubility
  solubility: 0.16 mg/mL
[1]; 0.9% saline with 0.125% Tween 80, aqueous with cosolvent or surfactant or cyclodextrin, 0.9% Saline (USP) with 0.125% Tween 80, read-out: Solubility
  solubility: > 0.8 mg/mL
[1]; 0.9% saline with 0.5% Tween 80, aqueous with cosolvent or surfactant or cyclodextrin, 0.9% Saline (USP) with 0.5% Tween 80, read-out: Solubility
  solubility: > 3.5 mg/mL
[1]; 0.9% saline with 1% Tween 20, aqueous with cosolvent or surfactant or cyclodextrin, 0.9% Saline (USP) with 1% Tween 20, maximum solubility not reached, read-out: Solubility
  solubility: > 2.6 mg/mL
[1]; 0.9% saline with 2.5% Tween 80, aqueous with cosolvent or surfactant or cyclodextrin, 0.9% Saline (USP) with 2.5% Tween 80 (polysorbate 80), read-out: Solubility
  solubility: > 3.5 mg/mL
[1]; 0.9% saline with 4% dodecylmaltoside and 1% Tween 20, aqueous with cosolvent or surfactant or cyclodextrin, 0.9% Saline Solution (USP), 4% dodecylmaltoside (DDM), 1% Tween 20, maximum solubility not reached, read-out: Solubility
  solubility: > 10 mg/mL
[1]; 0.9% saline with 7% tetradecylmaltoside, aqueous with cosolvent or surfactant or cyclodextrin, 0.9% Saline Solution (USP), 7% tetradecylmaltoside (TDM), maximum solubility not reached, read-out: Solubility
  solubility: > 11 mg/mL
[1]; PBS buffer
  Solubility in words: nearly insoluble
[1]; PBS buffer with 2.5% Tween 80, pH 7.4, aqueous with cosolvent or surfactant or cyclodextrin, read-out: Solubility
  solubility: > 4 mg/mL
[1]; Water (USP), maximum solubility not reached, read-out: Solubility
  solubility: > 100 mg/mL
[1]; aqueous buffer, 100 mM Tris buffer, pH 7.4, maximum solubility not reached, read-out: Solubility
  solubility: > 52 mg/mL
[1]; aqueous buffer, 1:10 diluted PBS buffer, pH 7.4, maximum solubility not reached, read-out: Solubility
  solubility: > 2.1 mg/mL
[1]; aqueous buffer, 5% Citric Acid, maximum solubility not reached, read-out: Solubility
  solubility: > 18.6 mg/mL
[1]; aqueous buffer, 50-100 mM Acetate buffer, pH 4.5, maximum solubility not reached, read-out: Solubility
  solubility: > 45 mg/mL
[1]; aqueous buffer, Phosphate buffered saline (PBS buffer), pH 7.4, read-out: Solubility
  solubility: 0.005 to 0.007 mg/mL
[1]; aqueous with cosolvent or surfactant or cyclodextrin, 0.3% acetic acid, 5% mannitol, 2.5% Tween 80, pH 4.5, maximum solubility not reached, read-out: Solubility
  solubility: > 15 mg/mL
[1]; aqueous with cosolvent or surfactant or cyclodextrin, 0.85% Tween 80 in PBS buffer, pH 7.4, maximum solubility not reached, read-out: Solubility
  solubility: > 4.1 mg/mL
[1]; aqueous with cosolvent or surfactant or cyclodextrin, 2.5% Tween 80, 5% mannitol, 0.3% acetic acid, pH 4.5, maximum solubility not reached, read-out: Solubility
  solubility: > 16 mg/mL
[1]; aqueous with cosolvent or surfactant or cyclodextrin, Lactated Ringer's Solution for Injection (USP), prepared from stock in USP water with 0.7% Tween 20, maximum solubility not reached, read-out: Solubility
  solubility: > 0.8 mg/mL
[1]; aqueous with cosolvent or surfactant or cyclodextrin, PBS buffer with 1% Tween 20, pH 7.4, maximum solubility not reached, read-out: Solubility
  solubility: > 0.37 mg/mL
[1]; saline or isotonic, 0.09% Saline, maximum solubility not reached, read-out: Solubility
  solubility: > 1.4 mg/mL
[1]; saline or isotonic, 0.225% Saline (USP), maximum solubility not reached, read-out: Solubility
  solubility: > 1.2 mg/mL
[1]; saline or isotonic, 0.45% Saline (USP), maximum solubility not reached, read-out: Solubility
  solubility: > 1.3 mg/mL
[1]; saline or isotonic, 0.9% Saline (USP), read-out: Solubility
  solubility: < 0.18 mg/mL
[1]; saline or isotonic, 5% D-Mannitol, maximum solubility not reached, read-out: Solubility
  solubility: > 4 mg/mL
[1]; saline or isotonic, 5% Dextrose Solution (USP), maximum solubility not reached, read-out: Solubility
  solubility: > 12 mg/mL
[1]; saline or isotonic, 5% dextrose, 5% mannitol and 0.22%-0.45% Sterile Saline Solution, read-out: Solubility (soluble)
  solubility: > 1 mg/mL
[1]; saline or isotonic, Lactated Ringer's Solution for Injection (USP), read-out: Solubility
  solubility: < 0.1 mg/mL
[2]; [5]
  Appearance after 1.5 mL added to (A) 5 mL 0.9% saline solution: Clear
  Appearance after 1.5 mL added to (B) 5 mL PBS buffer: Clear
[2]; [6]
  Appearance after 1.5 mL added to (A) 5 mL 0.9% saline solution: Clear
  Appearance after 1.5 mL added to (B) 5 mL PBS buffer: Clear
[2]; [7]
  Appearance after 1.5 mL added to (A) 5 mL 0.9% saline solution: Clear
  Appearance after 1.5 mL added to (B) 5 mL PBS buffer: Clear
[3]
  Time the formulated solution remained soluble in PBS: at least 1 hour
Sprague Dawley rats; Days 1-3, first vehicle (1.75% Tween 80 and 5% Dextrose for CD101 acetate; 5% Dextrose for Eraxis), Eraxis 40 mg/kg/day, CD101 acetate 6 and 20 mg/kg/day, males and females
  Incidence of tail vein irritation: highest
Sprague Dawley rats; Days 5-14, second vehicle (5% Mannitol, 2.5% Tween 80, 0.3% Acetic Acid for CD101 acetate; 5% Mannitol and 0.3% Acetic Acid for Eraxis), Eraxis 40 mg/kg/day, CD101 acetate 20 mg/kg/day
  Vein irritation compared to Groups 1, 3 and 4: only marginally higher
Sprague Dawley rats; high dose 20 mg/kg/day (Group 5), second vehicle 5% Mannitol/2.5% Tween 80/0.3% acetic acid
  Animals that did not receive ten consecutive days of treatment (Days 5-14): 90%
Sprague Dawley rats; low dose 2 mg/kg/day (Group 3), second vehicle 5% Mannitol/2.5% Tween 80/0.3% acetic acid
  Animals that did not receive ten consecutive days of treatment (Days 5-14): 10%
Sprague Dawley rats; mid-dose 6 mg/kg/day (Group 4), second vehicle 5% Mannitol/2.5% Tween 80/0.3% acetic acid
  Animals that did not receive ten consecutive days of treatment (Days 5-14): 10%
Sprague Dawley rats; males, high dose 20 mg/kg/day (Group 5), second vehicle 5% Mannitol/2.5% Tween 80/0.3% acetic acid
  Animals dosed for less than the intended ten-day duration (Days 5-14) as a result of tail swelling/lesions: 30%
[4]
  Appearance after 1.5 mL added to (A) 5 mL 0.9% saline solution: clear
